Assay [1] addresses alkaline phosphatase-IgG (goat anti-rabbit) conjugate (Bos taurus, UniProt P19111). Nature of the assay: Enzyme kinetics of alkaline phosphatase-IgG conjugate with varying AMP concentrations, double reciprocal plot. It counts as biochemical, calf. The conditions noted are these: 10 mM diethanolamine buffer pH 9.8, 37° C., 30 minutes, conjugate 2×10^-8 mg/ml; double reciprocal plot (FIG. 4b). As for the experimental part: To determine the enzyme kinetics of alkaline phosphatase-IgG (goat anti-rabbit) conjugate, varying concentrations of adenosine-5'-monophosphate were added to a 10^6 dilution of the enzyme-IgG conjugate. […] Alkaline phosphatase conjugate (2×10^-8 milligrams per milliliter) was added to 10 mM diethanolamine buffer having a pH of 9.8, containing various concentrations of AMP. The reaction mixtures were incubated at 37° C. for 30 minutes. The tritium-labelled adenosine released was determined by column chromatography utilizing DEAE Sephadex by applying an 0.05 milliliter aliquot of the reaction mixture to a column packed with 1.5 milliliters DEAE Sephadex A-25 followed by elutation with a total of 4.5 milliliters of 0.01 M diethanolamine buffer with a pH of 9.8, containing 0.1 mM unlabelled adenosine in two fractions. 20 ml of liquid scintillator, Aquasol®, was added to each fraction and the tritium-labelled adenosine was measured in a liquid scintillation counter. The Km was calculated to be approximately 4 mM by a double reciprocal plot of the Michalis-Menton equation which is shown in FIG. 4b. […] The counting of the actual scintillation counter was adjusted in accordance with standard techniques to yield DPM, disintegrations per minute. Varying concentrations of diethanolomine buffer and MgCl2 were tested. […]

In assay [2] the target is alkaline phosphatase-IgG conjugate (Bos taurus, UniProt P19111). The assay is described as follows: Effect of reaction products on the alkaline phosphatase-IgG conjugate assay (tritium-AMP hydrolysis). It counts as biochemical, calf. The conditions noted are these: 100 picamole tritium-AMP, 10 mM buffer pH 9.0, 37° C. The procedure: Triplicates of the assay mixture containing 100 picamole of tritium-AMP and 10^-8 milligrams of enzyme conjugate in 0.1 milliliter of 10 mM buffer with a pH of 9.0 were incubated at 37° C. from 0 to 48 hours. Aliquots of 50 microliters of the reaction mixtures were withdrawn for determination of enzyme activity at 0.5, 1.5, 4.5, 24 and 48 hours. The enzyme activity was nearly linear for 90 minutes with approximately 2% of the tritium-AMP hydrolyzed to tritium-adenosine and phosphate. At 24 and 48 hours, the enzyme reaction became slower. Since the tritium-AMP radioindicator was still in excess, the reduction of enzyme activity could be secondary to enzyme degradation and/or product inhibition. To determine the effects of reaction products on the assay, either phosphate (2 or 20 picamoles) or adenosine (20 picamoles) was added to the assay mixtures. 2 and 20 picamole phosphate inhibited alkaline phosphatase activity by 8% and 90% respectively. […] The variation in the triplicate samples was small. For reaction times of less than 5 hours, the variation in either duplicate or triplicate samples was less than 10% of the mean value.
Sequence of alkaline phosphatase-IgG conjugate (P19111 20-506 limits assumed): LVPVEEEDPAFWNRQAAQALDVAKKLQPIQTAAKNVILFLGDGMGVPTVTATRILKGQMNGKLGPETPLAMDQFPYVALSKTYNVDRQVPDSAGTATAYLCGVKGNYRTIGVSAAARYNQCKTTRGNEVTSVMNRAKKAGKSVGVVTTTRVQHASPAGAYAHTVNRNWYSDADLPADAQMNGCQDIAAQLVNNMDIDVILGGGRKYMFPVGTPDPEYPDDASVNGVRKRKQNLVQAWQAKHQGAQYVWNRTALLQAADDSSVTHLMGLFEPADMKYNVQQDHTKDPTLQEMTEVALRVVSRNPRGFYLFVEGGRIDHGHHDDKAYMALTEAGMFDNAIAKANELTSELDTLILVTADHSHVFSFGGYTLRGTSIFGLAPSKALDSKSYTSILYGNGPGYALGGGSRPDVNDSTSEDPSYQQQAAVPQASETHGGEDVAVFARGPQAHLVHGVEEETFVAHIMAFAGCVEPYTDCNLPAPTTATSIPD

Sequence of alkaline phosphatase-IgG (goat anti-rabbit) conjugate (P19111 20-506 limits assumed): as above

As to `Nc1ncnc2c1ncn2[C@@H]1O[C@H](COP(=O)(O)O)[C@@H](O)[C@H]1O` [adenosine-5'-monophosphate], the Km (commonly the substrate concentration at which the rate is half of its maximum) in assay [1] is about 4 mM.
As for `Nc1ncnc2c1ncn2[C@@H]1O[C@H](CO)[C@@H](O)[C@H]1O` [adenosine], in assay [2] (20 picamole adenosine added to 0.1 ml assay mixture), the “effect on the activity of the phosphatase” value was “no detectable effect”.
For phosphate, the “inhibition of alkaline phosphatase activity” value in assay [2] (2 picamole phosphate added to 0.1 ml assay mixture) was 8%; in assay [2] (20 picamole phosphate added to 0.1 ml assay mixture), 90%.
